Experimental data published in patent US20060089347A1, “Substituted azepines as histamine h3 receptor antagonists, preparation and therapeutic uses” (Eli Lilly and Company, priority 2002, published 2006).
Structures can show the parent of a compound that is named as a salt.

Tests used:
[1] = rat pharmacokinetics iv/po; format: in vivo, Male Sprague Dawley Rats; settings: male, Sprague Dawley, blood; for bioavailability: 3 mg/kg iv or 10 mg/kg po, AUC 0-8 hr po/iv ratio, vehicle water; for half-life: 10 mg/kg po
Protocol: Non-imidazole containing histamine H3 receptor antagonists disclosed in the literature generally have very poor pharmacokinetic properties (see J. Apelt, et al, J. Med. Chem. 2002, 45, 1128-1141). […] Male Sprague Dawley Rats (n=3 per dose arm) were separately dosed with 3 mg/kg iv or 10 mg/kg po of compound examples 8 and 19 (vehicle: water; dose volume: 1 mL/kg iv, 10 ml/kg po). Approximately 0.5 mL of blood was collected in heparin collection tubes at multiple time points over an 8 or 24 hour period for examples 8 and 19 respectively, and the samples were analyzed using LC/MS/MS.

H3R membranes = molecular target: T1, H3R membranes (Homo sapiens, UniProt Q9Y5N1); assay: [35S]GTPγS binding assay (antagonist activity); format: biochemical; settings: inhibition of [35S]GTPγS binding to H3R membranes in presence of agonist R(-)alpha methylhistamine
T1 construct: expressed in transfected cells; host or cells: HEK293 (clone H3R8)
T1 sequence (Q9Y5N1 whole entry): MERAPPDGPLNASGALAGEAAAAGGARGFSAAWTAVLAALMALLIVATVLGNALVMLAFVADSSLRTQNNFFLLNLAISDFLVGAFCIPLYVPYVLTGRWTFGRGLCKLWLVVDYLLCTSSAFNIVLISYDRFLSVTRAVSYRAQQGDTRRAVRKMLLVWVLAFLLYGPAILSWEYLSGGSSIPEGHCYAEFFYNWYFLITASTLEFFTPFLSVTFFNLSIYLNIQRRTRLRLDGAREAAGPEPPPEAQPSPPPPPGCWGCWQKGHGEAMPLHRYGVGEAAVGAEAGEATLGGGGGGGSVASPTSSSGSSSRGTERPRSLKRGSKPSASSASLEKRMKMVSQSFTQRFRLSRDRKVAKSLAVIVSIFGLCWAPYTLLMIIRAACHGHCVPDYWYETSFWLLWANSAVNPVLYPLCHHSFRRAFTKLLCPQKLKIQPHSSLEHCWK
Protocol: Membranes isolated as described in (Preparation of Histamine Receptor Subtype Membranes) were used in a [35S]GTPχS functional assay. Binding of [35S]GTPχS to membranes indicates agonist activity. Compounds of the invention of Formula I were tested for their ability to inhibit binding in the presence of agonists. Alternately, the same transfected cell lines were used for a cAMP assay wherein H3R agonists inhibited forskolin-activated synthesis of cAMP. Compounds of Formula I were tested for their ability to permit forskolin-stimulated cAMP synthesis in the presence of agonist.
(§1) cDNA for the human histamine 3 receptor was cloned and expressed as described in (Preparation of Histamine Receptor Subtye Membranes: A), above. Transfected cells were selected using G418 ([…]), grown, and tested for histamine binding by the SPA described above. For total binding, cells were assayed in a SPA reaction described above containing 50 mM Tris-HCL (assay buffer), pH 7.6, 1 mg wheat germ agglutinin SPA beads (Amersham Pharmacia Biotech, #RPNQ0001), and 1nM […]-n-alpha-methylhistamine (NEN, NET1027) (total volume per well=200μl). Thioperimide was added to determine non-specific binding. […]
Antagonist activity of selected compounds was tested for inhibition of [35S] […] Plates were counted in Wallac Trilux 1450 Microbeta scintillation counter for 1 minute. […]

H2R = molecular target: T2, H2R (Homo sapiens, UniProt P25021); assay: competitive SPA binding assay, H2R; settings: selectivity panel
T2 construct: expressed in transfected cells; host or cells: HEK 293 (clone H2R10)
T2 sequence (P25021 whole entry): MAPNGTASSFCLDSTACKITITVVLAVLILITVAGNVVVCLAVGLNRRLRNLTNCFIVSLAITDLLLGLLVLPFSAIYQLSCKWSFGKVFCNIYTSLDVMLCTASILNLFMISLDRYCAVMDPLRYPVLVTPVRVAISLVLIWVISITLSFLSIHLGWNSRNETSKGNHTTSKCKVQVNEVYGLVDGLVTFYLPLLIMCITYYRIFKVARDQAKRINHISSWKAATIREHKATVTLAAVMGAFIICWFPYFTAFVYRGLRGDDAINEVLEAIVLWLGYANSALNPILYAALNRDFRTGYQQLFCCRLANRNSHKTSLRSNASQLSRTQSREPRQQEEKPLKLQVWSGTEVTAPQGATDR
Protocol: cDNA for the human histamine 2 receptor was cloned, expressed and transfected into HEK 293 cells as described above. Histamine binding to cells was assayed by SPA described above. For total binding, cells were assayed in a SPA reaction containing 50 mM Tris-HCl (assay buffer), pH 7.6, 1 mg wheat germ agglutinin SPA beads (Amersham PharmaciaBiotech, #RPNQ0001), and 6.2 nM ^3H-tiotidine (Net-688, NEN) (total volume per well=200 μl). Cimetidine (10 μM, Sigma #C4522) was added to appropriate wells to determine non-specific binding.
Several clones were selected as positive for binding, and a single clone (H2R10) was used to prepare membranes for binding studies. Five micrograms of protein was used per well in the SPA receptor-binding assay.
(§2) To investigate the selectivity of the antagonists for the histamine receptors, a competitive binding assay described above was performed. […] Until the present invention, most known H3R antagonists also bound H4R.

H1R = molecular target: T3, H1R (Homo sapiens, UniProt P35367); assay: competitive SPA binding assay, H1R; settings: selectivity panel
T3 construct: expressed in transfected cells; host or cells: HEK293 (clone HIR40), vector pcDNA3.1(+)
T3 sequence (P35367 whole entry): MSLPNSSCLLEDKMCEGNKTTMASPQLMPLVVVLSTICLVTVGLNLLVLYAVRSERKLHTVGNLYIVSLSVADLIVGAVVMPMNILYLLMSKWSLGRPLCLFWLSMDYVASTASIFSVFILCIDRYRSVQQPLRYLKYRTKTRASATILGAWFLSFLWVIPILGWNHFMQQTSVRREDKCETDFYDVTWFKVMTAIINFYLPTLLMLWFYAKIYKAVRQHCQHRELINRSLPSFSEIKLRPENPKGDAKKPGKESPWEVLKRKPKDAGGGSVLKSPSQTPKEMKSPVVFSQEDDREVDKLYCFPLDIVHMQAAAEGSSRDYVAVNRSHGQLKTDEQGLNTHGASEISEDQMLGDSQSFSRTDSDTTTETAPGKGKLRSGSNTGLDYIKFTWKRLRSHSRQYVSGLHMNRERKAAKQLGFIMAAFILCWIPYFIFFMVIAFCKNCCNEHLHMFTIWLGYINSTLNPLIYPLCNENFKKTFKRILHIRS
Protocol: cDNA for the human histamine 1 receptor (H1R) was cloned into a mammalian expression vector containing the CMV promoter (pcDNA3.1(+), Invitogen) and transfected into HEK293 cells using the FuGENE Tranfection Reagent (Roche Diagnostics Corporation). Transfected cells were selected using G418 (500 μ/ml). Colonies that survived selection were grown and tested for histamine binding to cells grown in 96-well dishes using a scintillation proximity assay (SPA) based radioligand binding assay. Briefly, cells, representing individual selected clones, were grown as confluent monolayers in 96-well dishes (Costar Clear Bottom Plates, #3632) by seeding wells with 25,000 cells and growing for 48 hours (37° C., 5% CO2). Growth media was removed and wells were rinsed two times with PBS (minus Ca^2+ or Mg^2+). For total binding, cells were assayed in a SPA reaction containing 50 mM Tris-HCL (assay buffer), pH 7.6, 1 mg wheat germ agglutinin SPA beads (Amersham Pharmacia Biotech, #RPNQ0001), and 0.8 nM ^3H-pyrilamine (Net-594, NEN) (total volume per well=[…]). Astemizole (10 μM, Sigma #A6424) was added to appropriate wells to determine non-specific binding. Plates were covered with FasCal and incubated at room temperature for 120 minutes. […] Plates were counted in a Wallac Trilux 1450 Microbeta scintillation counter. […]

H4R = molecular target: T4, H4R (Homo sapiens, UniProt Q9H3N8); assay: competitive binding assay, GPRv53 (H4R); settings: for Ki: competitive binding, selectivity panel; for inhibition of binding to H4R: in contrast to H3R
T4 construct: expressed in transfected cells; host or cells: HEK293 (HEK293 GPRv53 50 cells)
T4 sequence (Q9H3N8 whole entry): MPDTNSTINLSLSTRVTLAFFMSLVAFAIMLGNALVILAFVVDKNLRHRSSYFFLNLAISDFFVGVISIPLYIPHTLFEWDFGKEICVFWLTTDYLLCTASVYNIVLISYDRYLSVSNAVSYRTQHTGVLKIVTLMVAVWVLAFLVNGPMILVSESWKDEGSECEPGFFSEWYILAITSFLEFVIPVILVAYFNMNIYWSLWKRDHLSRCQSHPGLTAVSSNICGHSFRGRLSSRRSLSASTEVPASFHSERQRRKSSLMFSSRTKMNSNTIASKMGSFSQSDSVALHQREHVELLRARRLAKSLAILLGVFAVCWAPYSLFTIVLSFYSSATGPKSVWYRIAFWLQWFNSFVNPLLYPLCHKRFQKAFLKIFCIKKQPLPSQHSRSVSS
Protocol: cDNA for the human GPRv53 receptor was cloned and expressed as described in (Preparation of Histamine Receptor Subtype Membranes: A), above. Transfected cells were selected, tested for histamine binding, and selected. HEK293 GPRv53 50 cells were grown to confluency in DMEM/F12 (Gibco) supplemented with 5% FBS and 500 ug/ml G418 and washed with Delbecco's PBS (Gibco) and harvested by scraping. Whole cells were homogenized with a Polytron tissuemizer in binding buffer, 50 mM Tris pH 7.5. Cell lysates, 50 ug, were incubated in 96 well dishes with 3 nM (3H) Histamine and compounds in binding buffer for 2 hours at room temperature. Lysates were filtered through glass fiber filters (Perlin Elmer) with a Tomtec cell harverster. Filters were counted with melt-on scintillator sheets (Perlin Elmer) in a Wallac Trilux 1450 Microbeta Scintillation counter for 5 minutes.
as §2

H3R = molecular target: T5, H3R (Homo sapiens, UniProt Q9Y5N1); assay: competitive inhibition SPA binding assay, H3R; settings: selectivity panel
T5 construct: expressed in transfected cells; host or cells: HEK293 (clone H3R8)
T5 sequence (Q9Y5N1 whole entry): as the sequence (Q9Y5N1 whole entry) above
Excerpt: The inventive compounds can readily be evaluated by using a competitive inhibition Scintillation Proximity Assay (SPA) based on a H3R binding assay using [3H] a methylhistamine as ligand. Stable cell lines, including but not limited to HEK can be transfected with cDNA coding for H3R to prepare membranes used for the binding assay. The technique is illustrated below (Preparation of Histamine Receptor Subtype Membranes) for the histamine receptor subtypes.
as §1, with “binding. Several clones were selected as positive for binding, and a single clone (H3R8) was used to prepare membranes for binding studies described above. Five micrograms of protein was used per well in the SPA receptor-binding assay.” for “binding.”

Row | SMILES | bioavailability [1] | half-life [1] | Ki (H3R membranes) | Ki (H2R) | Ki (H1R) | Ki (H4R) | inhibition of binding to H4R (H4R) | Ki (H3R)
1 | CN(C)CC(=O)N1CCCc2cc(OCCCN3CCCCC3)ccc2C1 [Example 8, 2-Dimethylamino-1-[7-(3-piperidin-1-yl-propoxy)-1,3,4,5-tetrahydro-benzo[c]azepin-2-yl]-ethanone] | 49% | 12.2 h |  |  |  |  |  | 
2 | CC(=O)N1CCc2ccc(OCCCN3CCCCC3)cc2CC1 [Example 19, 1-[7-(3-Piperidin-1-yl-propoxy)-1,2,4,5-tetrahydro-benzo[d]azepin-3-yl]-ethanone] | 100% | 12.4 h |  |  |  |  |  | 
3 | CC(C)(C)OC(=O)N1CCCc2cc(OCCCN3CCCCC3)ccc2C1 [Example 1, 7-(3-Piperidin-1-yl-propoxy)-1,3,4,5-tetrahydro-benzo[c]azepine-2-carboxylic acid tert-butyl ester] |  |  | 5.1 nM | 813 nM | 648 nM | ≥ 20000 nM | did not inhibit binding H4R | 5.1 nM
4 | c1cc2c(cc1OCCCN1CCCCC1)CCCNC2 [Example 2, 7-(3-Piperidin-1-yl-propoxy)-2,3,4,5-tetrahydro-1H-benzo[c]azepine dihydrochloride] |  |  | 0.85 nM | 894 nM | 1760 nM | ≥ 20000 nM | did not inhibit binding H4R | 0.85 nM
